This passage reports Activity, IC50 and Drug uptake results from ChEMBL document CHEMBL4715755, “Isothiouronium modification empowers pyrimidine-substituted curcumin analogs potent cytotoxicity and Golgi localization” (Eur J Med Chem, 2016).

Molecules are shown by their SMILES. pIC50: −log10 of the molar value. Activity calls are given as the source filed them. The calls are words filed in the database; no cut-off is given here.

Series [1] deals with CHO. Briefly: Cytotoxicity against CHO cells overexpressing 3-O-sulfotransferase 1 assessed as reduction in cell viability at 10 uM incubated for 48 hrs by resazurin reagent based fluorescence assay. Also noted: species or system Cricetulus griseus. As to conditions: chinese hamster. (In general: The colour change of resazurin is a common sign of viable cells or microbes.)
The subject of series [2] is CHO. Briefly: Cytotoxicity against CHO cells overexpressing 3-O-sulfotransferase 2 assessed as reduction in cell viability at 10 uM incubated for 48 hrs by resazurin reagent based fluorescence assay. As to conditions: chinese hamster. Further details: species or system Cricetulus griseus.
The test system of series [3] is HT-29. Briefly: Cytotoxicity against human HT-29 cells assessed as reduction in cell viability incubated for 48 hrs by resazurin reagent based fluorescence assay. The format is functional. As to conditions: HT-29, 48 h.
Series [4] relates to A549. Briefly: Cytotoxicity against human A549 cells assessed as reduction in cell viability incubated for 48 hrs by resazurin reagent based fluorescence assay. As to conditions: A549, 48 h. The format is functional.
The nature of series [5]: Cytotoxicity against heparan sulfate-deficient CHO-677 cells assessed as reduction in cell viability at 10 uM incubated for 48 hrs by resazurin reagent based fluorescence assay. Also noted: species or system Cricetulus griseus. As to conditions: chinese hamster, cho-677, 48 h.
Series [6] relates to A549. Briefly: Cytotoxicity against human A549 cells assessed as reduction in cell viability at 10 uM incubated for 48 hrs by resazurin reagent based fluorescence assay. The format is functional.
The test system of series [7] is NCI-H1299. Briefly: Cytotoxicity against human NCI-H1299 cells assessed as reduction in cell viability incubated for 48 hrs by resazurin reagent based fluorescence assay. The settings on record: NCI-H1299, 48 h. The format is functional.
The test system of series [8] is CHO. Briefly: Cytotoxicity against CHO cells overexpressing 3-O-sulfotransferase 4 assessed as reduction in cell viability at 10 uM incubated for 48 hrs by resazurin reagent based fluorescence assay. Also noted: species or system Cricetulus griseus. As to conditions: chinese hamster.
Series [9] in a line: Drug localization in cytoplasm of human A549 cells at 10 uM incubated for 4 hrs by Golgin-97 and DAPI staining based laser scanning confocal microscopic analysis. The format is ADME, subcellular. As to conditions: a549, 4 h.
For series [10], the system named is HCT-116. Briefly: Cytotoxicity against human HCT-116 cells assessed as reduction in cell viability incubated for 48 hrs by resazurin reagent based fluorescence assay. The format is functional. As to conditions: HCT-116, 48 h.
Series [11] is described as follows: Drug localization in cytoplasm of human HCT-116 cells at 10 uM measured upto 12 hrs by Golgin-97 and DAPI staining based laser scanning confocal microscopic analysis. As to conditions: hct-116, 12 h. The format is ADME, subcellular.
A short description of series [12]: Drug localization in cytoplasm of human A549 cells at 10 uM measured upto 12 hrs by Golgin-97 and DAPI staining based laser scanning confocal microscopic analysis. The format is ADME, subcellular. As to conditions: a549, 12 h.
Series [13] in a line: Cytotoxicity against GAG-deficient CHO-745 cells assessed as reduction in cell viability at 10 uM incubated for 48 hrs by resazurin reagent based fluorescence assay. Also noted: species or system Cricetulus griseus. As to conditions: chinese hamster, cho-745, 48 h.
Series [14] concerns CHO-K1. Briefly: Cytotoxicity against CHO-K1 cells assessed as reduction in cell viability at 10 uM incubated for 48 hrs by resazurin reagent based fluorescence assay. Also noted: species or system Cricetulus griseus. The settings on record: chinese hamster, cho-k1, 48 h.
In series [15] the test system is CHO. Briefly: Cytotoxicity against CHO cells overexpressing 3-O-sulfotransferase 3 assessed as reduction in cell viability at 10 uM incubated for 48 hrs by resazurin reagent based fluorescence assay. As to conditions: chinese hamster. Further details: species or system Cricetulus griseus.
A short description of series [16]: Drug localization in golgi bodies of human A549 cells at 10 uM measured upto 12 hrs by Golgin-97 and DAPI staining based laser scanning confocal microscopic analysis. The format is ADME, subcellular, Golgi body. The settings on record: a549, 12 h.
Series [17] is described as follows: Drug localization in golgi bodies of human A549 cells at 10 uM incubated for 4 hrs by Golgin-97 and DAPI staining based laser scanning confocal microscopic analysis. The format is ADME, subcellular, Golgi body. The settings on record: a549, 4 h.
Series [18] in a line: Drug localization in golgi bodies of human HCT-116 cells at 10 uM measured upto 12 hrs by Golgin-97 and DAPI staining based laser scanning confocal microscopic analysis. The format is ADME, subcellular, Golgi body. As to conditions: hct-116, 12 h.

Broadly, the pIC50 is −log10 of the IC50, conventionally taken in molar units. `COc1ccc(/C=C/c2cc(/C=C/c3ccc(OC)cc3)nc(OCCCCBr)n2)cc1`: the Activity entry in series [1], in series [2], in series [5], in [8], in series [13] and in series [14] was “Non-Toxic” throughout. The Activity result in series [15] is recorded as “Non-Toxic”. For the same compound, the negative-log IC50 (pIC50) in series [3], in series [4], in series [7] and in [10] was less than 4.70 in each case. Also, in series [6], the result was inactive. The Drug uptake result in [9], in series [11] and in series [12] was “Active” each time.
For `Br.COc1ccc(/C=C/c2cc(/C=C/c3ccc(OC)cc3)nc(OCCCCSC(=N)N)n2)cc1`, the Activity result in series [1], in series [2], in series [5], in series [8], in series [13] and in [14] was “Toxic” each time. Further, the Activity entry in series [15] is “Toxic”. The pIC50 was 6.10 in [3], 6.00 in series [4], 6.04 in [7] and 6.00 in series [10]. Moreover, the outcome in series [6] was Active. Moreover, the Drug uptake entry in [16], in series [17] and in series [18] was “Active” in each case.
